Test results from US10941157B2, “Pesticidal compositions and uses thereof” (Gilead Apollo, LLC, priority 2015, dated 2021).
In brackets after ≈: the same amount, converted by molar mass.

How the values were obtained:
[1] = test system: Collectotrichum graminicola (Cg); test: In vitro pathogen growth inhibition assay, Cg; assay type: cell-based; conditions: 48 h, ≥90% growth inhibition; 48 hours; vs 2% DMSO control; read-out: Compound Concentration (ppm) sufficient for ≥90% inhibition of Cg
Method in brief: (§1)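 Value reported is the compound concentration reaching ≥90% growth inhibition, from OD readings at 24 and 48 h after blank subtraction, confirmed visually. Inoculum was spores diluted in 17% V8 medium, except Rs, using 1.5 mm mycelial plugs in ¼ PDB; actual compound concentration corrected via OD600.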

Botrtyis cinerea (Bc) = test: In vitro pathogen growth inhibition assay, Bc; assay type: cell-based; conditions: 48 h, ≥90% growth inhibition; 48 hours; vs 2% DMSO control; read-out: Compound Concentration (ppm) sufficient for ≥90% inhibition of Bc
Method in brief: as §1

[2] = test system: Fusarium moniliforme (Fm); test: In vitro pathogen growth inhibition assay, Fm; assay type: cell-based; conditions: Fusarium verticillioides; ≥90% growth inhibition; 48 hours; vs 2% DMSO control; read-out: Compound Concentration (ppm) sufficient for ≥90% inhibition of Fm
Method in brief: as §1

Fusarium graminearum = assay type: in vivo; conditions: spray on flowering Triticum aestivum cv. Samson, inoculated 24 hours after treatment, evaluated 14 days later
[3] = test system: Mycosphaerella graminicola (synthetic Septoria tritici); test: Foliar protection test for wheat septoria leaf blotch control; assay type: in vivo; conditions: foliar spray on Triticum aestivum cv. WinterHawk, inoculated 1 hour after treatment, evaluated 16 days later
Sphaerotheca fuliginea = test: Foliar protection for cucumber powdery mildew control; assay type: in vivo; conditions: foliar spray on Cucumis sativus cv. Straight Eight, inoculated 24 hours after treatment, evaluated 7 days later
Method in brief: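 Protective foliar spray on 10-day-old Straight Eight cucumbers, with S. fuliginea spores dusted from infected stock plants 24 h after treatment. Disease developed at 23–27 °C, 60% RH and a 16 h photoperiod. Leaves were rated for mildew growth after 7 days; test rates 10 ppm or below.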

Septoria tritici (St) = test: In vitro pathogen growth inhibition assay, St; assay type: cell-based; conditions: Zymoseptoria tritici, 48 h, ≥90% growth inhibition; 48 hours; vs 2% DMSO control; read-out: Compound Concentration (ppm) sufficient for ≥90% inhibition of St
Method in brief: as §1

Phakopsora pachyrhizi = test: Foliar protection test for Asian soybean rust control; assay type: in vivo; conditions: foliar application to soybean (Glycine max AG4832), percent disease area evaluated 14 days later
Diplodia maydis (Dm) = test: In vitro pathogen growth inhibition assay, Dm; assay type: cell-based; conditions: Stenocarpella maydis, 48 h, ≥90% growth inhibition; 48 hours; vs 2% DMSO control; read-out: Compound Concentration (ppm) sufficient for ≥90% inhibition of Dm
Method in brief: (§2)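 Spores in 17% V8 liquid medium, or 1.5 mm Rs mycelial plugs in ¼ PDB, incubated with compound; final concentration checked by OD600 for precipitation. OD readings at 24 and 48 h, blank-subtracted, plus visual ratings; value is concentration giving ≥90% growth inhibition.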

[4] = test system: Blumeria graminis f. sp. hordei; test: Foliar protection test for barley powdery mildew control; assay type: in vivo; conditions: foliar spray on Hordeum vulgare cv. Perry, inoculated 24 hours after treatment, evaluated 7 days later
Method in brief: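 Protective foliar test: compound atomized onto both leaf surfaces of 6-day-old Hordeum vulgare cv. Perry, followed after 24 h by spore-cloud inoculation from colonized untreated plants. Disease rated on leaves 7 days on, plants held at 20 to 22° C and 70% RH.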

Rhizoctonia solani (Rs) = test: In vitro pathogen growth inhibition assay, Rs (mycelial plugs); assay type: cell-based; conditions: Rhizoctonia solani, 48 h, ≥90% growth inhibition; mycelial plugs; 48 hours; vs 2% DMSO control; read-out: Compound Concentration (ppm) sufficient for ≥90% inhibition of Rs
Method in brief: as §2

[5] = test system: Phytophthora capsici (Pc); test: In vitro pathogen growth inhibition assay, Pc; assay type: cell-based; conditions: 48 h, ≥90% growth inhibition, 48 hours, vs 2% DMSO control, read-out: Compound Concentration (ppm) sufficient for ≥90% inhibition of Pc
Method in brief: as §2

[6] = test system: Fusarium virguliforme (Fv); test: In vitro pathogen growth inhibition assay, Fv; assay type: cell-based; conditions: ≥90% growth inhibition, 48 hours, vs 2% DMSO control, read-out: Compound Concentration (ppm) sufficient for ≥90% inhibition of Fv
Method in brief: as §2

Puccinia triticina = test: Foliar protection test for wheat leaf rust control; assay type: in vivo; conditions: foliar application to wheat (Triticum aestivum cv. Winterhawk), evaluated 10 days later

SMILES	IC90 [1] [µg/mL]	IC90 (Botrtyis cinerea (Bc)) [µg/mL]	IC90 [2] [µg/mL]	Wheat Fusarium Head Blight Control at a compound concentration of 25 ppm or lower (Fusarium graminearum)	Septoria Leaf Blotch Control at a compound concentration of 25 ppm or lower [3]	Cucumber Powdery Mildew Control at a compound concentration of 10 ppm or lower (Sphaerotheca fuliginea)	IC90 (Septoria tritici (St)) [µg/mL]	Asian Soybean Rust Control at a compound concentration of 25 ppm or lower (Phakopsora pachyrhizi)	IC90 (Diplodia maydis (Dm)) [µg/mL]	Barley Powdery Mildew Control at a compound concentration of 10 ppm or lower [4]	IC90 (Rhizoctonia solani (Rs)) [µg/mL]	IC90 [5] [µg/mL]	IC90 [6] [µg/mL]	Wheat Leaf Rust Control at a compound concentration of 10 ppm or lower (Puccinia triticina)
COc1ccc(F)cc1[C@@H](O)Cn1c(=O)n([C@@H](C)C(=O)N(C)C(C)C)c(=O)c2c(C)c(-n3nccn3)sc21 [Compound I-189, (S)-2-(1-((R)-2-(5-fluoro-2-methoxyphenyl)-2-hydroxyethyl)-5-methyl-2,4-dioxo-6-(2H-1,2,3-triazol-2-yl)-1,4-dihydrothieno[2,3-d]pyrimidin-3 (2H)-yl)-N-isopropyl-N-methylpropanamide]	0.4 (≈ 0.734 µM)	0.4 (≈ 0.734 µM)	0.08 (≈ 0.147 µM)	C (from 25 to 49% control of wheat fusarium head blight)	A (from 70% to 84% control of wheat septoria leaf blotch)	AA (≥85% control of cucumber powdery mildew)	50 (≈ 91.8 µM)	A (from 70% to 84% control of Asian soybean rust)	0.4 (≈ 0.734 µM)	AA (≥85% control of barley powdery mildew)	0.08 (≈ 0.147 µM)	> 50	0.4 (≈ 0.734 µM)	AA (≥85% control of wheat leaf rust)
COc1ccccc1[C@H](Cn1c(=O)n(C(C)(C)C(=O)NC(C)C)c(=O)c2c(C)c(-n3cccn3)sc21)OCCC#N [Compound I-192, (R)-2-(1-(2-(2-cyanoethoxy)-2-(2-methoxyphenyl)ethyl)-5-methyl-2,4-dioxo-6-(1H-pyrazol-1-yl)-1,4-dihydrothieno[2,3-d]pyrimidin-3 (2H)-yl)-N-isopropyl-2-methylpropanamide]	≥ 2	0.4 (≈ 0.691 µM)	0.08 (≈ 0.138 µM)	D (<25% control of wheat fusarium head blight)	A (from 70% to 84% control of wheat septoria leaf blotch)	AA (≥85% control of cucumber powdery mildew)	≥ 50	AA (≥85% control of Asian soybean rust)	2 (≈ 3.46 µM)	AA (≥85% control of barley powdery mildew)	0.08 (≈ 0.138 µM)	50 (≈ 86.4 µM)	0.4 (≈ 0.691 µM)	AA (≥85% control of wheat leaf rust)
COc1ccc(F)cc1[C@H](Cn1c(=O)n([C@H](C)C(=O)NC(C)C)c(=O)c2c(C)c(-n3nccn3)sc21)OCCC#N [Compound I-198, (R)-2-(1-((R)-2-(2-cyanoethoxy)-2-(5-fluoro-2-methoxyphenyl)ethyl)-5-methyl-2,4-dioxo-6-(2H-1,2,3-triazol-2-yl)-1,4-dihydrothieno[2,3-d]pyrimidin-3 (2H)-yl)-N-isopropylpropanamide]	0.08 (≈ 0.137 µM)	0.4 (≈ 0.685 µM)	0.08 (≈ 0.137 µM)	C (from 25 to 49% control of wheat fusarium head blight)	AA (≥85% control of wheat septoria leaf blotch)	AA (≥85% control of cucumber powdery mildew)	≥ 2	AA (≥85% control of Asian soybean rust)	0.08 (≈ 0.137 µM)	AA (≥85% control of barley powdery mildew)	0.08 (≈ 0.137 µM)	2 (≈ 3.43 µM)	0.4 (≈ 0.685 µM)	AA (≥85% control of wheat leaf rust)
